Experimental data published in US5219998A, “Yeast-derived epidermal growth factor” (priority 1991, dated 1993).

Tests used:
A431 cells [1] = assay: Relative stability at 55° C. measured by stimulation of A431 cellular respiration; type: cell-based, human; conditions: 100 ng of mEGF
Protocol: Referring to FIG. 4, a graph is shown summarizing the results obtained for yEGF(Fraction I) and mEGF.
In preparation for the titration the results of which are shown in FIG. 4, twenty microliter samples of either 100 ng of mEGF or 500 ug of yEGF(Fraction I) were incubated for various times at 55° C. The samples were removed and assayed for their ability to stimulate A431 cell respiration. The procedures for measuring respiration were the same as those which are summarized in relationship to the work leading to FIG. 2.

human EGF receptor = human EGF receptor (Homo sapiens, UniProt P00533); assay: Binding to EGF receptor of A431 cells (125I-mEGF competition); conditions: read-out: binding constant (KD), same experiment
anti-mEGF antibody = assay: Anti-murine EGF Elisa titration; type: binding, goat; conditions: Elisa absorbance; significant at <0.1; standard error 0.019
Protocol: One ml of a 100 mg/ml sample of a yeast extract yEGF(Fraction I) was diluted to 10% with trichloroacetic acid (Fisher Scientific no. A322-100) and allowed to stand for 30 minutes on ice. Precipitated material was collected on a centrifuge at 10,000×g for 10 minutes, and washed twice with 95% ethanol. The insoluble material was dissolved in 1 ml of water and dispersed in a 96 well plate by serial dilutions. Unbound antigen was removed after 3 hours at 37° C. and the plate was incubated with monospecific anti-mEGF antibody overnight at 4° C. Excess antibody was removed by washing the plates and a second antibody conjugated to alkaline phosphatase was added to each well. After 3 hours at 37° C., the excess second antibody was removed and the amount of alkaline phosphatase per well was determined. The Elisa test was dependent on the amount of y-EGF present. In preparation of the materials for the titration shown in the graph of FIG. 6, one hundred microliters of PBS was added to each well of a 96 well microtiter plate. Twenty five microliters of 10 mg/ml yEGF was added to the second well of each row. After mixing, 25 microliters was transferred to the third well in the row. The process was repeated until all the wells had dilutions of yEGF. The antigen was allowed to bind at 37° C. for 3 hours and the plate was washed 3 times with PBS containing 0.05% Tween-20(TPBS). […]

A431 cells [2] = assay: A431 cellular respiration assay (Clark oxygen electrode); type: cell-based, human
Protocol: In preparing to carry out the titration the results of which are shown in FIG. 2, 10 cm dishes of A431 cells were washed twice and incubated in 5 ml of DME containing 0.1% bovine serum albumin for 1 hour in a CO2 incubator. The cells were collected by trypsinization and resuspended at 2-3×10^6 cells per ml in DME containing 0.1% bovine serum albumin. One ml of the cell suspension was transferred to a glass tube that as maintained at 37° C. with circulating water. The cells were allowed to equilibrate at temperature for 5 minutes, and a Clark oxygen electrode was inserted into the vessel. Potentiometric readings were continuously taken from the electrode using a YSI oxygraph that was attached to a recorder. […] Respiration was allowed to continue until an accurate rate could be observed on the recorder. The rates of respiration were converted to microliters of oxygen per hour per 2×10^6 cells.
Similarly, the yEGF fractions were titered by measuring their immediate effect on the consumption of oxygen by A431 cells.
The Experimental Over Control (EXP/CON) is the rate of respiration observed with yEGF(Fraction I) divided by the basal respiration rate for that sample.

- Kd (human EGF receptor): 2.42 nM
Substance: mEGF: pure murine EGF (Collaborative Research no 40001)
- time to loss of ability to stimulate respiration (A431 cells [1]): ≤ 10 min
- regression coefficient: one ug equals 0.0518(ABS)--0.0223 (anti-mEGF antibody): 0.0518
- % Stimulation of A431 respiration (A431 cells [2]; 6.5 ug/ml a-mEGF): 1.5%
- % Stimulation of A431 respiration (A431 cells [2]; 10 ug/ml murine IGG): 91.8%
- % Stimulation of A431 respiration (A431 cells [2]; 0.1mM DTT): 44.8%
- effect of Dithiotrietol (DTT) on activity (A431 cells [2]; DTT): enhanced
- slope of regression Z=1.512 ug/ml EGF+1.03 (A431 cells [2]; Z = respiration ratio to control, concentration in ug/ml, intercept 1.03, 98% confidence): 1.512
- activity after boiling (A431 cells [2]; boiled): denatured
- % Stimulation of A431 respiration (A431 cells [2]; no pretreatment, 0.5 ug/ml mEGF or 1.0 mg/ml yEGF (Fraction I)): 17.8%
- % Stimulation of A431 respiration (A431 cells [2]; pretreatment 30 min 2 ug/ml ProK): 1.0%
- % Stimulation of A431 respiration (A431 cells [2]; pretreatment 30 min 2 ug/ml RNase A): 17.6%
- % Stimulation of A431 respiration (A431 cells [2]; pretreatment 30 min 2ug/ml trypsin): 1%
- % Stimulation of A431 respiration (A431 cells [2]; pretreatment 30 min 10 ug/ml DNasel): 18.2%
- % Stimulation of A431 respiration (A431 cells [2]; pretreatment Boiling): 2.1%
